Reference: PMC9445672, “A novel angiotensin-I-converting enzyme inhibitory peptide from oyster: Simulated gastro-intestinal digestion, molecular docking, inhibition kinetics and antihypertensive effects in rats” (Frontiers in Nutrition, 2022)
pIC50: −log10 of the molar value. Read-outs that look alike come from different tables or passages of the source. Residues, ends and D or L forms follow the SMILES beside them.

Experiments:
ACE = conditions: cited from earlier work
Excerpt: The inhibitory patterns of the ACEI peptides mainly contain competitive inhibition, non-competitive inhibition, and mixed inhibition according to their various structures. […] Non-competitive A ... || The Lineweaver-Burk plots were employed to elucidate the ACE inhibition kinetic of the synthetic peptide […], shown in Figure 2B. Whereas the Vmax was the same when the concentrations of the inhibitory peptide increased, the Km/Vmax value increased. […] Among all the ACE inhibition patter ...

[1] = molecular target: T1, Angiotensin-I converting enzyme (ACE) (from rabbit lungs) (Oryctolagus cuniculus, UniProt P12822); test: ACE-inhibitory activity assay (HHL substrate, HPLC of hippuric acid); assay type: biochemical
T1 construct: Angiotensin-I converting enzyme (ACE) (from rabbit lungs); purchased Sigma-Aldrich Co. (St. Louis, MO, United States); host or cells: rabbit lung tissue
T1 sequence (P12822 34-1310): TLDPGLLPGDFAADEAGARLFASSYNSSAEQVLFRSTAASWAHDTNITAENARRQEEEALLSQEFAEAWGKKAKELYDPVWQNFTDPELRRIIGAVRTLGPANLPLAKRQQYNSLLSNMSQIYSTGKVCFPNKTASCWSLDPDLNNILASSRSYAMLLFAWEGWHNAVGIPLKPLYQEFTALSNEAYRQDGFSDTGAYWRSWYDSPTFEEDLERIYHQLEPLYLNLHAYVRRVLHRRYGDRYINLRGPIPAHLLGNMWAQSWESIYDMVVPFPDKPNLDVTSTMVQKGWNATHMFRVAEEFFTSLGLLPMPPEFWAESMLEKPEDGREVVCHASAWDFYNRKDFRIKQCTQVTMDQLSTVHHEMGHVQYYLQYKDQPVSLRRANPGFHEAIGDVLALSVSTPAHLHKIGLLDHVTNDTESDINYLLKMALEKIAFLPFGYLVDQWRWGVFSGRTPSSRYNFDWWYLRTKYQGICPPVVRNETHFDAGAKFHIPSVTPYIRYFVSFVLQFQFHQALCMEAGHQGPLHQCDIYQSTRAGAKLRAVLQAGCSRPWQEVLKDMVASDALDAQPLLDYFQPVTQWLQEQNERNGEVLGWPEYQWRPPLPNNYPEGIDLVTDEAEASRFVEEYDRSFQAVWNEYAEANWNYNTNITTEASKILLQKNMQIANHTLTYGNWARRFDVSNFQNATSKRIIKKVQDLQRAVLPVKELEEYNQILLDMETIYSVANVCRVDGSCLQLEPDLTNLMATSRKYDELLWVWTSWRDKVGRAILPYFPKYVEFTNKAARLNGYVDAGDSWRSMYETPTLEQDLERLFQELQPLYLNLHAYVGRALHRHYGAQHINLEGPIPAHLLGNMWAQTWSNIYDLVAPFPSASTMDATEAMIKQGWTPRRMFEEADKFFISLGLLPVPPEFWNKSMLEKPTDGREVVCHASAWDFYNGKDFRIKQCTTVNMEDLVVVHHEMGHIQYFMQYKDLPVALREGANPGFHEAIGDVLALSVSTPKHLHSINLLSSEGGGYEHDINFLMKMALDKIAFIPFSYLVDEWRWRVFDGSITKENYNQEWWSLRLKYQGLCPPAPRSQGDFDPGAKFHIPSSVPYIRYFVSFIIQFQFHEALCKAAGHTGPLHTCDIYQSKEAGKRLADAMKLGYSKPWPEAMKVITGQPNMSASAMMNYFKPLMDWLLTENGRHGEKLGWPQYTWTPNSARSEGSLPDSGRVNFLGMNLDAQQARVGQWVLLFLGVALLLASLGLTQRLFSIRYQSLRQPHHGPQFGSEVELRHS
Description: The ACEI activity of the synthesized peptides was measured following the reported method with a minor modification ([22]). The experiment was carried out in a 1.5 mL PE tube. Briefly, for each assay, 20 μL of the inhibitor (1 mg/ml) was mixed with 120 μL of the HHL solution in the concentration of 5 mM. The mixture was first preincubated at a constant temperature of 37°C for 5 min, 10 μL ACE (0.1 U/mL) was then added to start the reaction, and to incubate at 37°C for 60 min. In the end, 150 μl HCl (1M) was used to terminate the reaction. Meanwhile, the inhibitor solution was replaced with 20 μL boric acid buffer solution (0.1 mol/L, pH 7.3, containing 0.3 mol/L NaCl) as a blank control group. The HPLC system was equipped with a ZORBAX Eclipse SB-C18 column (5 μm particle size, 4.6 × 150 mm). To analyze the releasing amount of hippuric acid under the action of ACE, the elution was conducted in 25% Mobile Phase A (ACN) and 75% Mobile Phase B (0.05% TFA in ultrapure water) for 25 min with a flow rate of 0.8 mL/min. The ACE inhibitory activity percentage (%) was calculated based on the equation below:
ACEinhibitionrate(%)=(B-S)/B×100
Where B and S are the chromatographic peak areas of the control group and the sample tested, respectively. IC50 is the inhibitor concentration capable of inhibiting 50% of ACE activity under the described experimental conditions, which was estimated by non-linear regression of ACE inhibition (%) against different inhibitor concentrations by using SPSS software.

[2] = molecular target: T1, Angiotensin-I converting enzyme (ACE) (from rabbit lungs); test: as above; assay type: biochemical; conditions: peptide 2 mg/mL, HHL 5 mM, ACE 0.1 U/mL, 37°C, 5 min pre-incubation, 60 min, triplicate
[3] = molecular target: T1, Angiotensin-I converting enzyme (ACE) (from rabbit lungs); test: Kinetics of ACE inhibition (Lineweaver-Burk plot); assay type: biochemical; conditions: HHL 1–10 mM, peptide 1 and 2 mg/mL
Description: To explore the inhibition pattern of the peptide and clarify the kinetics of ACEI activity, the Lineweaver-Burk plot was employed in our study. The various concentrations of the HHL solution were 1, 2, 5, 8, and 10 mM, and the concentration of synthesized peptide was set as 2 mg/mL. Various concentrations of HHL and peptide were incubated in ACE solutions. The Y-intercept of the Lineweaver-Burk plot represents the reciprocal of the maximum velocity (Vmax^–1), while the X-intercept is the reciprocal of the Michaelis-Menten constant (Km^–1).

[4] = system: Ren1 / Adrb3 expression in SHRs; set-up: method as in 2 sources, one per row (each row's own in cited_ref): ref [45] = [45]; PMID 24404915; doi:10.1021/jf405189y; 45. Yu ZP Yin YG Zhao WZ Chen F Liu JB . Antihypertensive effect of angiotensin-converting enzyme inhibitory peptide RVPSL on spontaneously hypertensive rats by regulating gene expression of the renin ||| ref [46] = [46]; PMID 26517713; doi:10.1371/journal.pone.0142016; 46. Feng J Dai Z Zhang Y Meng L Ye J Ma X . Alteration of gene expression profile in kidney of spontaneously hypertensive rats treated with protein hydrolysate of blue mussel ( Mytilus edulis ) by DNA; conditions: SHRs orally administered 50 mg/kg; ref [45]; cited from earlier work
[5] = system: SHRs (spontaneously hypertensive rats); test: Blood pressure of SHRs after single intragastric administration (tail-cuff); assay type: in vivo, rat
Description: Male SHRs aged 10–12 weeks old, body weight (BW) of 220–250 g, and blood pressure over 180 mmHg were purchased from Trophic Animal Feed High-tech Co. Ltd., (Nantong, China). Six SHRs were administrated individually in each cage with the stable room temperature (25 ± 0.5°C), the humidity of 55 ± 5%, and a 12-h light to12-h dark cycle. Food and water were freely accessed. Rats were accustomed to the above environment for 2 weeks before the experiment. […] The SHRs were randomly grouped in 3. Rats were gavage administered with peptide at 15 mg/kg⋅BW/day in the experiment group. […] All rats were gavaged with their daily dose at 8 am, and the blood pressure was measured every 3 h by 4 times, which was using the tail-cuff method ([27]). Briefly, rats were covered with a fixed device but could let their tail leak out (MK2000ST, Muromachi Kikai Co., Ltd., Japan). A cuff was curled around the tail to measure the diastolic blood pressure (DBP) and systolic blood pressure (SBP).

[6] = food-derived peptides, ref [32], [37]
[7] = food-derived peptides, ref [43], [44]
[8] = peptide 1 mg/mL, HHL 5 mM, ACE 0.1 U/mL, 37°C, 5 min pre-incubation, 60 min, HPLC of hippuric acid, triplicate
[9] = clinical drugs for hypertension, ref [30]
[10] = food-derived peptides, ref [41], [42]

ACE inhibition rate (%) Concentration (1 mg/mL) [1, 8] | ACE inhibition rate (%) Concentration (2 mg/mL) [2] | Molecule | ACE inhibitory pattern (ACE; [6]) | other results
– | – | AVKVL [derived from hazelnut] | Non-competitive | –
– | – | NMAINPSKENLCSTFCK [isolated from casein hydrolysates] | – | ACE inhibitory pattern (ACE; [7]): mixed pattern
– | – | ISSMGILVCL [isolated from longan seeds] | Non-competitive | –
3.6918% | 13.9971% | LDVSWASD | – | –
–1.1236% | –5.7205% | LSSNLHG | – | –
– | – | QAGLSPVR [from tilapia skin gelatin] | Non-competitive | –
1.6051% | 4.7219% | VILGDADLP | – | –
– | – | ETSGMKPTEL [isolated from longan seeds] | Non-competitive | –
–3.8523% | –5.0688% | QEVVMGEC | – | –
– | – | QLVP [from Mycelia of Ganoderma Lucidum] | – | ACE inhibitory pattern (ACE; [7]): mixed pattern
– | – | NCCCC[C@H](N[C@@H](CCc1ccccc1)C(=O)O)C(=O)N1CCC[C@H]1C(=O)O [lisinopril] | – | ACE inhibitory pattern (ACE; [9]): competitive inhibitors
– | – | TLVGR [derived from hazelnut] | Non-competitive | –
14.2857% | 29.3266% | CC(C)C[C@H](NC(=O)[C@H](Cc1ccc(O)cc1)NC(=O)[C@H](CCC(=O)O)NC(=O)[C@H](C)N)C(=O)N[C@@H](CS)C(=O)N[C@@H](CCC(=O)O)C(=O)N[C@@H](C)C(=O)N[C@@H](CS)C(=O)O (H-AEYLCEAC-OH) | – | inhibition at 1000 µg/mL ([1]; peptide 1 mg/mL, HHL 5 mM, ACE 0.1 U/mL, 37°C, 5 min pre-incubation, 60 min, HPLC of hippuric acid, triplicate, read-out: ACE inhibition rate (%) Concentration (1 mg/mL)): 14.3%; pIC50 ([1]; peptide 0.2–15 mg/mL, HPLC method, regression y = −0.0073x^2 + 0.1616x −0.0105 (R^2 = 0.99), read-out: IC50 of ACE inhibition): 2.37; inhibition at 2000 µg/mL ([2]; read-out: ACE inhibition rate (%) Concentration (2 mg/mL)): 29.3%; Km/Vmax value with increasing inhibitory peptide concentration [3]: increased
– | – | VGLPNSR [from tilapia skin gelatin] | Non-competitive | –
– | – | ALVY [from Gac Seed Protein Hydrolysates] | – | ACE inhibitory pattern (ACE; [10]): competitive
–13.9647% | –4.3447% | RSNDGPI | – | –
– | – | RVPSL [hydrolyzed from egg white protein] | – | Ren1 expression [4]: downregulated
– | – | EPNGLLLPQY [from walnut protein] | – | ACE inhibitory pattern (ACE; [7]): mixed pattern
– | – | SSYYPFK [from naked oat globulin hydrolysates] | – | ACE inhibitory pattern (ACE; [10]): competitive
– | – | C[C@H](CS)C(=O)N1CCC[C@H]1C(=O)O [captopril] | – | blood pressure reduction in rats with hypertension, overall comparison ([5]; all data of single and 4-week administration in SHRs): better than AEYLCEAC; SBP after a single intragastric administration ([5]; male SHRs, gavage, peptide 15 mg/kg BW, captopril 10 mg/kg BW, 3 to 12 h, vs water control, p < 0.01): SBP in control group was significantly higher than that in the peptide group and positive group
– | – | CCOC(=O)[C@H](CCc1ccccc1)N[C@@H](C)C(=O)N1CCC[C@H]1C(=O)O [enalapril] | – | ACE inhibitory pattern (ACE; [9]): competitive inhibitors
– | – | YLVR [derived from hazelnut] | Non-competitive | –
–4.8796% | 7.9218% | TNEVEGPS | – | –
